Earlier results as cited in patent US8642009B2, “Diagnostic system for the detection of skin cancer” (priority 2005, dated 2014).
Like-named read-outs stand apart in the source and are kept apart here. Marks after values point to notes of the source that are not given here.

Legend:
[1] = system: MDA-MB human breast cancer; conditions: MDA-MB tumour model, 120 min p.i.
[2] = system: OVCAR-3 ovarian carcinoma; conditions: OVCAR-3 tumour model, 120 min p.i.; for Tumour/blood: estimated from graphical presentations
αvβ3 = αvβ3 (Homo sapiens, UniProt P05106+P06756)
[3] = system: Osteo murine osteosarcoma; conditions: Osteo tumour model
M21 human melanoma = conditions: M21 tumour model, 120 min p.i.
[4] = system: ACHN human renal adenocarcinoma; conditions: in vivo
[5] = system: CA20948 rat pancreatic tumour; conditions: CA20948 tumour model, 4 h p.i.
[6] = system: DLD-1 human colon adenocarcinoma; conditions: DLD-1 tumour model, 60 min p.i.
U87MG human glioblastoma = conditions: U87MG tumour model
[7] = 4 h p.i., estimated from graphical presentations

αvβ3, sequence (P06756 31-889 limits assumed): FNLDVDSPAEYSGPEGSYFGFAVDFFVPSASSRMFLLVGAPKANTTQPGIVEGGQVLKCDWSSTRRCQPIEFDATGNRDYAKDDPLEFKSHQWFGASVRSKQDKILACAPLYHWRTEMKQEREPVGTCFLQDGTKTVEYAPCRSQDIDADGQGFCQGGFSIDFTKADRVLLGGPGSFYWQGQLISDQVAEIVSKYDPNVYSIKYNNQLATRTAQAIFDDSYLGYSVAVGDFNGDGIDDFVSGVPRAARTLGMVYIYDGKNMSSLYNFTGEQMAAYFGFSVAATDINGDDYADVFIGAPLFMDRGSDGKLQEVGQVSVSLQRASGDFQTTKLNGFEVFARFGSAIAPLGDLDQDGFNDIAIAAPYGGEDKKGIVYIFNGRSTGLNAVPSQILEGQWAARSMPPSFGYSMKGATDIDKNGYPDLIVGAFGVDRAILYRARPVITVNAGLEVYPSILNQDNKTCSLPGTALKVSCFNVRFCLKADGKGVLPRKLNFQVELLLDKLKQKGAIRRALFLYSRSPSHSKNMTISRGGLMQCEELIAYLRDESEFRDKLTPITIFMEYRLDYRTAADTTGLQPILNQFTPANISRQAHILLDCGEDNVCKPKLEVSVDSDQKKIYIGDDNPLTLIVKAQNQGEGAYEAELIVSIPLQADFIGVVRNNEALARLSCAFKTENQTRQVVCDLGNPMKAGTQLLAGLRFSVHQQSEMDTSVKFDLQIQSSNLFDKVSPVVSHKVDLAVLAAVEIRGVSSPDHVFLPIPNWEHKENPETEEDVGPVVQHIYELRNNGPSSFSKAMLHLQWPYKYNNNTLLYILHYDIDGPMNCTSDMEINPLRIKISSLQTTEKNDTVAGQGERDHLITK
αvβ3, sequence (P06756 891-1048 partner limits assumed): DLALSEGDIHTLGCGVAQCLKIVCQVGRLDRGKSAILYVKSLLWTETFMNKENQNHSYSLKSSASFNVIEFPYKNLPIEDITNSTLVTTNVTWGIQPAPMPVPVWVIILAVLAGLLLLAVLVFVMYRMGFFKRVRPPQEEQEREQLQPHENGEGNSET
αvβ3, sequence (P05106 27-788): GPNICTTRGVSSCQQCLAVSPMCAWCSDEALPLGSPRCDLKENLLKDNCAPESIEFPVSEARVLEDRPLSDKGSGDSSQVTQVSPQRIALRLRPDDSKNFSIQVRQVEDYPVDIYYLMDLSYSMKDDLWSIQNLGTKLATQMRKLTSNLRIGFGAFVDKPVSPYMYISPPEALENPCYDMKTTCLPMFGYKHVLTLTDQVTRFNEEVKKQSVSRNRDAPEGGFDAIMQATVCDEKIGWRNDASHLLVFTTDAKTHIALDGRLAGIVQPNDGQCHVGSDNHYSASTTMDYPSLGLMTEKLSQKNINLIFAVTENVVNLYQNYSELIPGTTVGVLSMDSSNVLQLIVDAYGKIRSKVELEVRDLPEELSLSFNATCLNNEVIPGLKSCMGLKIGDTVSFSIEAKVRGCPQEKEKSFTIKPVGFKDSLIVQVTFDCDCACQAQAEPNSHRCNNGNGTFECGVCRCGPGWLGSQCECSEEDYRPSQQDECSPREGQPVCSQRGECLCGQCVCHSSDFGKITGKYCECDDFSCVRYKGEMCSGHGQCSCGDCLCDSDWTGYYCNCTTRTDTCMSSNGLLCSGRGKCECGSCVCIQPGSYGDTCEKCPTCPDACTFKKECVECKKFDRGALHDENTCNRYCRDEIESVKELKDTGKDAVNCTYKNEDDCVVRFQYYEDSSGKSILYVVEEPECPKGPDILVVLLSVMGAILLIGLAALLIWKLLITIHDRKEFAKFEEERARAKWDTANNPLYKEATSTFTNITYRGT

## FB-c(RGDyK)
[1]
  Tumour uptake: 1.0 ± 0.3^b % ID/g
  Tumour/blood: 12.2
  Tumour/muscle: 5.8

## HYNIC-E-[c(RGDfK])2
[2]
  Tumour uptake: 5.8 ± 0.5^b % ID/g
  Tumour/blood: 10^g ^

## c(RGDfY)
αvβ3
  IC50: 40 nM
[3]; 60 min p.i.
  Tumour uptake: 0.4 ± 0.1^c % ID/g
  Tumour/blood: 1.1
  Tumour/muscle: 2.7

## ((c(RGDfE)HEG)2-K)2-Dpr
αvβ3
  IC50: 0.2 nM
M21 human melanoma
  Tumour uptake: 1.7 ± 0.1^b % ID/g
  Tumour/blood: 21.3
  Tumour/muscle: 23.1

## (c(RGDfE)HEG)2-K-Dpr
αvβ3
  IC50: 3 nM
M21 human melanoma
  Tumour uptake: 1.6 ± 0.1^b % ID/g
  Tumour/blood: 12.4
  Tumour/muscle: 14.2

## RGD-4C
[4]
  Tumour/blood: 1.6
  Tumour/muscle: 2.6

## c(RGDyK)
[1]
  Tumour uptake: 3.0 ± 0.1^b % ID/g
  Tumour/blood: 20.2
  Tumour/muscle: 4.7

## c(RGDy V)
αvβ3
  IC50: 10 nM
[3]; 120 min p.i.
  Tumour uptake: 1.5 ± 0.2^b % ID/g
  Tumour/blood: 8.6
  Tumour/muscle: 4.9

## DTPA-RGD
[5]
  Tumour uptake: 0.1 ± 0.02^d % ID/g
  Tumour/blood: 9.2
  Tumour/muscle: 7.9

## c(RGDfE)HEG-Dpr
αvβ3; IC50 value for the corresponding compound
  IC50: 20 nM
M21 human melanoma
  Tumour uptake: 0.5 ± 0.1^b % ID/g
  Tumour/blood: 12.4
  Tumour/muscle: 13.2

## DOTA-c(RGDyK)
[1]
  Tumour uptake: 1.4 ± 0.1^b % ID/g
  Tumour/blood: 6.9
  Tumour/muscle: 6

## DKCK-RGD
M21 human melanoma
  Tumour uptake: 1.1 ± 0.1^b % ID/g
  Tumour/blood: 9.7
  Tumour/muscle: 8.1

## FP-E-c(RGDyK)2
[1]
  Tumour uptake: 4^b,g % ID/g

## c(RGDfMe V)
[6]
  Tumour uptake: 0.9 ± 0.1^c % ID/g
  Tumour/blood: 5.2
  Tumour/muscle: 2.7

## DOTA-E-[c(RGDfK])2
[2]
  Tumour uptake: 7.5 ± 1.5^b % ID/g
  Tumour/blood: 40^g ^

## FP-PEG-c(RGDyK)
U87MG human glioblastoma; 120 min p.i.
  Tumour uptake: 2.6 ± 0.1^b % ID/g
  Tumour/blood: 18.4
  Tumour/muscle: 25.6

## mPEG-c(RGDyK)
U87MG human glioblastoma; 120 min p.i.
  Tumour uptake: 5.1 ± 0.3^b % ID/g
  Tumour/blood: 85

## DOTA-E[E-c(RGDyK)z]2
U87MG human glioblastoma; 120 min p.i.
  Tumour uptake: 7.6 ± 0.6^b % ID/g

## DOTA-PEG-c(RGDyK)
U87MG human glioblastoma; 4 h p.i.
  Tumour uptake: 1.6 ± 0.2^d % ID/g
U87MG human glioblastoma; [7]
  Tumour/blood: 80^g ^
  Tumour/muscle: 16^g ^

## RGD
αvβ3
  IC50: 40 nM
M21 human melanoma
  Tumour uptake: 1.8 ± 0.3^b % ID/g
  Tumour/blood: 7.9
  Tumour/muscle: 6.2

## DOTA-RGD
[3]; 60 min p.i.
  Tumour uptake: 1.1 ± 0.04^c % ID/g
  Tumour/blood: 11.8
  Tumour/muscle: 2.8
